ChEMBL document CHEMBL6096731, “Structure-Guided Optimization and Preclinical Evaluation of 6-O-Benzylguanine-Based Pin1 Inhibitor for Hepatocellular Carcinoma Treatment” (J Med Chem, 2025)
The source made the active and inactive calls. No cut-off for these calls is given here.

Tests used:
SK-HEP1 [1] = assay: Upregulation of let7a expression in human SK-HEP1 cells at 5 uM incubated for 36 hrs by RT-PCR analysis; format: functional, cell-based
SK-HEP1 [2] = assay: Inhibition of cell migration in human SK-HEP1 cells at 5 uM incubated for 24 hrs by wound healing assay; format: functional, cell-based
Homo sapiens = species: Homo sapiens; assay: Inhibition of FKBP12 (unknown origin) expressed in Escherichia coli
[3] = Toxicity in c-Myc/Alb-Cre transgenic mouse assessed as heart damage at 2.5 mg/kg, po; format: organism-based; settings: in vivo
SK-HEP1 [4] = assay: Antitumor activity against human SK-HEP1 cells xenografted in female BALB/c mouse assessed as increase in pin1 level in brain at 2.5 mg/kg, po measured every 4 days; format: functional, organism-based; settings: time 4.0 day
[5] = target: T1, Peptidyl-prolyl cis-trans isomerase NIMA-interacting 1 (Homo sapiens, UniProt Q13526); assay: Inhibition of pin1 in human SK-HEP1 cells at 5 uM by mass spectrometry analysis; format: cell-based
[6] = Toxicity in c-Myc/Alb-Cre transgenic mouse assessed as effect on ALP level at 2.5 mg/kg, po; format: organism-based; settings: in vivo
SK-HEP1 [7] = assay: Induction of cell cycle arrest in human SK-HEP1 cells assessed as accumulation of cells at S phase by PI staining based flow cytometry analysis; format: functional
SK-HEP1 [8] = assay: Inhibition of cell migration in human SK-HEP1 cells at 5 uM incubated for 24 hrs by crystal violet staining based microscopic analysis; format: functional
[9] = target: Peptidyl-prolyl cis-trans isomerase A (Homo sapiens) (UniProt P62937); assay: Inhibition of Cyclophilin A (unknown origin) expressed in Escherichia coli
[10] = target: Peptidyl-prolyl cis-trans isomerase NIMA-interacting 1 (Mus musculus) (UniProt Q9QUR7); assay: Binding affinity to mouse pin1
SK-HEP1 [11] = assay: Antitumor activity against human SK-HEP1 cells xenografted in female BALB/c mouse assessed as increase in pin1 level in liver at 2.5 mg/kg, po measured every 4 days; format: functional, organism-based; settings: time 4.0 day
[12] = Toxicity in c-Myc/Alb-Cre transgenic mouse assessed as effect on TBIL level at 2.5 mg/kg, po; format: organism-based; settings: in vivo
SK-HEP1 [13] = assay: Antitumor activity against human SK-HEP1 cells xenografted in female BALB/c mouse assessed as increase in pin1 level in spleen at 2.5 mg/kg, po measured every 4 days; format: functional, organism-based; settings: time 4.0 day
[14] = Toxicity in c-Myc/Alb-Cre transgenic mouse assessed as effect on ALT level at 2.5 mg/kg, po; format: organism-based; settings: in vivo
[15] = target: Voltage-gated inwardly rectifying potassium channel KCNH2 (Homo sapiens, UniProt Q12809)
[16] = Toxicity in female BALB/c mouse implanted with human SK-HEP1 cells assessed as effect on body weight at 2.5 mg/kg, po measured every 4 days; format: organism-based; settings: in vivo, 96 h, time 4 day
[17] = Toxicity in c-Myc/Alb-Cre transgenic mouse assessed as effect on ALB level at 2.5 mg/kg, po; format: organism-based; settings: in vivo
[18] = Metabolic stability in mouse microsomes measured after 120 mins; format: ADME, Liver, Microsome; settings: 2 h
SK-HEP1 [19] = assay: Antitumor activity against human SK-HEP1 cells xenografted in c-Myc/Alb-Cre transgenic female BALB/c mouse model assessed as downregulation of c-myc level in liver at 2.5 mg/kg, po measured every 4 days by immunoblotting analysis; format: functional, organism-based; settings: time 4.0 day
[20] = Toxicity in c-Myc/Alb-Cre transgenic mouse assessed as effect on AST level at 2.5 mg/kg, po; format: organism-based; settings: in vivo
SK-HEP1 [21] = assay: Antitumor activity against human SK-HEP1 cells xenografted in female BALB/c mouse assessed as increase in pin1 level in tumor at 2.5 mg/kg, po measured every 4 days; format: functional, organism-based; settings: time 4.0 day
[22] = Chemical stability of compound by HPLC analysis; format: physicochemical
[23] = target: T1, Peptidyl-prolyl cis-trans isomerase NIMA-interacting 1; assay: Inhibition of pin1 in human SK-HEP1 cells assessed as reduction in c-myc level at 5 uM incubated for 24 hrs by immunoblotting analysis; format: cell-based
SK-HEP1 [24] = assay: Antiproliferative activity against human SK-HEP1 cells transfected with human pin1 assessed as cell viability at 5 uM incubated for 72 hrs; format: functional, cell-based
[25] = Toxicity in c-Myc/Alb-Cre transgenic mouse assessed as lung damage at 2.5 mg/kg, po; format: organism-based; settings: in vivo
SK-HEP1 [26] = assay: Antitumor activity against human SK-HEP1 cells xenografted in female BALB/c mouse assessed as increase in pin1 level in heart at 2.5 mg/kg, po measured every 4 days; format: functional, organism-based; settings: time 4.0 day
SK-HEP1 [27] = assay: Antitumor activity against human SK-HEP1 cells xenografted in female BALB/c mouse assessed as downregulation of beta-catenin level at 2.5 mg/kg, po measured every 4 days by immunoblotting analysis; format: functional, organism-based; settings: time 4.0 day
SK-HEP1 [28] = assay: Antiproliferative activity human SK-HEP1 cells assessed as cell viability measured at 96 hrs; format: functional, cell-based
[29] = Drug distribution in BALB/c mouse tumor measured after 24 hrs by HPLC analysis; format: ADME, tissue-based, Neoplasm; settings: in vivo
SK-HEP1 [30] = assay: Antiproliferative activity human SK-HEP1 cells assessed as cell viability measured up to 120 hrs; format: functional, cell-based
SK-HEP1 [31] = assay: Antiproliferative activity human SK-HEP1 cells assessed as cell viability measured at 120 hrs; format: functional, cell-based
SK-HEP1 [32] = assay: Antitumor activity against human SK-HEP1 cells xenografted in female BALB/c mouse assessed as reduction in tumor growth at 2.5 mg/kg, po measured every 4 days; format: functional, organism-based; settings: time 4.0 day
[33] = Drug distribution in BALB/c mouse liver measured after 24 hrs by HPLC analysis; format: ADME, tissue-based; settings: in vivo
[34] = Toxicity in c-Myc/Alb-Cre transgenic mouse assessed as effect on TP level at 2.5 mg/kg, po; format: organism-based; settings: in vivo
SK-HEP1 [35] = assay: Upregulation of miR-146a expression in human SK-HEP1 cells at 5 uM incubated for 36 hrs by RT-PCR analysis; format: functional, cell-based
SK-HEP1 [36] = assay: Upregulation of miR-122 expression in human SK-HEP1 cells at 5 uM incubated for 36 hrs by RT-PCR analysis; format: functional, cell-based
SK-HEP1 [37] = assay: Antitumor activity against human SK-HEP1 cells xenografted in female BALB/c mouse assessed as downregulation of c-myc level at 2.5 mg/kg, po measured every 4 days by immunoblotting analysis; format: functional, organism-based; settings: time 4.0 day
SK-HEP1 [38] = assay: Antitumor activity against human SK-HEP1 cells xenografted in female BALB/c mouse assessed as increase in pin1 level in kidney at 2.5 mg/kg, po measured every 4 days; format: functional, organism-based; settings: time 4.0 day
[39] = Chemical stability of compound at pH 7 measured after 24 hrs by HPLC analysis; format: physicochemical; settings: buffer, pH 7, 24 h
[40] = Drug localization in nucleus of human SK-HEP1 cells at 5 uM incubated for 24 hrs by Hoechst 33342 staining based fluorescence microscopic analysis; format: ADME, subcellular; settings: sk-hep1, 24 h
[41] = target: T1, Peptidyl-prolyl cis-trans isomerase NIMA-interacting 1; assay: Inhibition of pin1 in human SK-HEP1 cells assessed as reduction in beta-catenin level at 5 uM incubated for 24 hrs by immunoblotting analysis; format: cell-based
[42] = target: T1, Peptidyl-prolyl cis-trans isomerase NIMA-interacting 1; assay: Inhibition of full length pin1 (unknown origin) expressed in Escherichia coli
[43] = target: Peptidyl-prolyl cis-trans isomerase NIMA-interacting 4 (Homo sapiens) (UniProt Q9Y237); assay: Inhibition of full length pin4 (unknown origin) expressed in Escherichia coli
[44] = target: T1, Peptidyl-prolyl cis-trans isomerase NIMA-interacting 1; assay: Binding affinity to GST-tagged pin1 (unknown origin) assessed as dissociation constant by SPR analysis
[45] = Toxicity in c-Myc/Alb-Cre transgenic mouse assessed as spleen damage at 2.5 mg/kg, po; format: organism-based; settings: in vivo
SK-HEP1 [46] = assay: Antiproliferative activity human SK-HEP1 cells assessed as inhibition of cell proliferation incubated for 120 hrs; format: functional, cell-based; settings: dose <= 2.0 µM
HCC = assay: Induction of apoptosis in human HCC cells at 5 uM by Annexin V/FITC staining based flow cytometry analysis; format: functional, cell-based
[47] = target: T1, Peptidyl-prolyl cis-trans isomerase NIMA-interacting 1; assay: Binding affinity to GST-tagged pin1 (unknown origin) assessed as thermal stabilization at 1 uM at 48 to 58 degreeC by cellular thermal shift assay
[48] = Antiproliferative activity against human HCC cells assessed as cell viability incubated for 72 hrs by alamar blue dye based assay; format: toxicity; settings: HCC cells
[49] = Toxicity in c-Myc/Alb-Cre transgenic mouse assessed as liver damage at 2.5 mg/kg, po; format: organism-based; settings: in vivo
[50] = Toxicity in c-Myc/Alb-Cre transgenic mouse assessed as kidney damage at 2.5 mg/kg, po; format: organism-based; settings: in vivo
Hep 3B2 = assay: Antiproliferative activity human Hep3B cells assessed as inhibition of cell proliferation incubated for 120 hrs; format: functional, cell-based
SK-HEP1 [51] = assay: Antitumor activity against human SK-HEP1 cells xenografted in c-Myc/Alb-Cre transgenic female BALB/c mouse model assessed as downregulation of beta-catenin level in liver at 2.5 mg/kg, po measured every 4 days by immunoblotting analysis; format: functional, organism-based; settings: time 4.0 day
SK-HEP1 [52] = assay: Upregulation of miR-29b expression in human SK-HEP1 cells at 5 uM incubated for 36 hrs by RT-PCR analysis; format: functional, cell-based

T1 sequence (Q13526 whole entry): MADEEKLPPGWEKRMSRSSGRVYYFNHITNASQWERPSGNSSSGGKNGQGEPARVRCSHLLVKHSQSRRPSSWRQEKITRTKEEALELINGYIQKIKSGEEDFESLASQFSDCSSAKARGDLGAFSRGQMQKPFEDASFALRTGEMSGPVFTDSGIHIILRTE
Peptidyl-prolyl cis-trans isomerase NIMA-interacting 4 (Homo sapiens), sequence (Q9Y237 whole entry): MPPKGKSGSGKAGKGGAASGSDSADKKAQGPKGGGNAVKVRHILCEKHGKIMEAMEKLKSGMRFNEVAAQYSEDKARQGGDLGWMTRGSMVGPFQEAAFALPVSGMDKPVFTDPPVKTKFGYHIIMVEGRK
Voltage-gated inwardly rectifying potassium channel KCNH2, sequence (Q12809 whole entry): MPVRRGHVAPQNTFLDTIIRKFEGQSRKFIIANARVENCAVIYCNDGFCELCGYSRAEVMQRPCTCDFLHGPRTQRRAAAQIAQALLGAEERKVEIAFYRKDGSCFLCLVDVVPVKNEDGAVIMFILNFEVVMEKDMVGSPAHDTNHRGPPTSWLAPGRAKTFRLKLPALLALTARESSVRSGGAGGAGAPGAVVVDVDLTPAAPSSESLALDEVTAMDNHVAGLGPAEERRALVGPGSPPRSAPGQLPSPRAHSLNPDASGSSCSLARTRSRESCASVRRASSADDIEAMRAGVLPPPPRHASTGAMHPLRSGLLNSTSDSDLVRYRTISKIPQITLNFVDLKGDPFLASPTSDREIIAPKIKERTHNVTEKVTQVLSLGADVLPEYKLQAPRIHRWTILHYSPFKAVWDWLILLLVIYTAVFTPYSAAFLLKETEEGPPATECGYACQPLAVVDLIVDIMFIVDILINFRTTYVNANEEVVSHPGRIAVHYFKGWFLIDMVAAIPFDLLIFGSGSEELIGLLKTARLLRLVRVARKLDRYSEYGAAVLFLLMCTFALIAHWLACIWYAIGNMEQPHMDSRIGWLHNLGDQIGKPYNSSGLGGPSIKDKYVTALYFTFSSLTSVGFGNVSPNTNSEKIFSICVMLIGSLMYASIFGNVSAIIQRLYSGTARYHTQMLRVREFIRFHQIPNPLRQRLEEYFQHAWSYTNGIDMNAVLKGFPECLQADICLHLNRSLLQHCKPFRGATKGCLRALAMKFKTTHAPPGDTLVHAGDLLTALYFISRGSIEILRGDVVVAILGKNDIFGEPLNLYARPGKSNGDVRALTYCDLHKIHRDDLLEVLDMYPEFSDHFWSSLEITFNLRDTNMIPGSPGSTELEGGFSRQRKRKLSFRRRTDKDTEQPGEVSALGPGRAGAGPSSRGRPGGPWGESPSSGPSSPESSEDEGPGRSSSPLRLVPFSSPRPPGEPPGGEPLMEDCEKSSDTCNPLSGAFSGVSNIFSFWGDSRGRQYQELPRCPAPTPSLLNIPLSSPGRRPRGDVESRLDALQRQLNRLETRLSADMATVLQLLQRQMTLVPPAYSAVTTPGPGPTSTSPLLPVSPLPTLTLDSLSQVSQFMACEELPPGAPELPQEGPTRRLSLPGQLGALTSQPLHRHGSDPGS
Peptidyl-prolyl cis-trans isomerase A (Homo sapiens), sequence (P62937 whole entry, looked up): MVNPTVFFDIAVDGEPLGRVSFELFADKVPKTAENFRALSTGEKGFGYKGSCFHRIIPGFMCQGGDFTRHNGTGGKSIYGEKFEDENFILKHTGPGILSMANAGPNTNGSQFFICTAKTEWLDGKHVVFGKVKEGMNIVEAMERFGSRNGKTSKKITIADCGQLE
Peptidyl-prolyl cis-trans isomerase NIMA-interacting 1 (Mus musculus), sequence (Q9QUR7 whole entry): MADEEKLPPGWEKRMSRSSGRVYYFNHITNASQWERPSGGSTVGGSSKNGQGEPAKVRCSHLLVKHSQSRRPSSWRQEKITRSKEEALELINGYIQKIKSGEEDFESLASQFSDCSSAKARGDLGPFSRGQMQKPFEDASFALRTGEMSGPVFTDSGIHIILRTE

inhibition (Homo sapiens): inactive
inhibition [5]: Active
inhibition [9]: inactive
Activity [10]: Active
Stability [18]: Stable
Stability [22]: Stable
inhibition [23]: Active
Drug uptake [29]: Active
Drug uptake [33]: Active
Stability [39]: Stable
Drug uptake [40]: Active
inhibition [41]: Active
IC50 [42]: 64.4 nM
inhibition [43]: inactive
Kd [44]: 154 nM
Activity [47]: Active
Structure (SMILES): Nc1nc(OCc2ccc3c(c2)OCO3)c2nc[nH]c2n1
Activity (SK-HEP1 [1]): Active
inhibition (SK-HEP1 [2]): Active
Activity [3]: Non-toxic
Activity (SK-HEP1 [4]): Active
Activity [6]: Non-toxic
Activity (SK-HEP1 [7]): Active
inhibition (SK-HEP1 [8]): Active
Activity (SK-HEP1 [11]): Active
Activity [12]: Non-toxic
Activity (SK-HEP1 [13]): Active
Activity [14]: Non-toxic
IC50 [15]: > 30000 nM
Activity [16]: Non-toxic
Activity [17]: Non-toxic
Activity (SK-HEP1 [19]): Active
Activity [20]: Non-toxic
Activity (SK-HEP1 [21]): Active
Activity (SK-HEP1 [24]): Active
Activity [25]: Non-toxic
Activity (SK-HEP1 [26]): Active
Activity (SK-HEP1 [27]): Active
Activity (SK-HEP1 [28]): Active
Activity (SK-HEP1 [30]): Active
Activity (SK-HEP1 [31]): Active
Activity (SK-HEP1 [32]): Active
Activity [34]: Non-toxic
Activity (SK-HEP1 [35]): Active
Activity (SK-HEP1 [36]): Active
Activity (SK-HEP1 [37]): Active
Activity (SK-HEP1 [38]): Active
Activity [45]: Non-toxic
Activity (SK-HEP1 [46]): Active
Activity (HCC): Active
IC50 at 72 h [48]: 2600 nM
Activity [49]: Non-toxic
Activity [50]: Non-toxic
Activity (Hep 3B2): Active
Activity (SK-HEP1 [51]): Active
Activity (SK-HEP1 [52]): Active
